pIC50: −log10 of the molar value. Counter-ions that a name gives are not always drawn. Like-named read-outs stand apart in the source and are kept apart here.

This is an account of results in patent publication US5208244A, “Method of selectively inhibiting calcium-independent myocardial phospholipase A2” (priority 1990, dated 1993).

The target in one assay is T1, porcine pancreatic PLA2 (Sus scrofa, UniProt P00592).
T1 construct: purchased Sigma (St. Louis); host or cells: porcine pancreas
In words: Porcine pancreatic PLA2 assay ([14C]-oleate labelled E. coli). The class given is biochemical. The conditions noted are these: 10 mM CaCl2, pH 8.0; > : inhibition but not enough for an IC50; >> : little or no inhibition at highest concentration; read-out: Porcine Pancr. PLA2 IC50. The source says: (§1) Several other PLA2 assays were utilized in order to gain some measure of the selectivity of the inhibitors of calcium-independent myocardial PLA2. Specifically, three other calcium-dependent mammalian PLA2 assays are used: (1) sheep platelet PLA2, (2) human synovial fluid PLA2, and (3) porcine pancreatic PLA2. The PLA2 enzymes represent different groups of PLA2 enzymes. Myocardial PLA2, platelet PLA2, and secreted PLA2 enzymes (human synovial fluid PLA2 and porcine pancreatic PLA2) have very different calcium requirements, which may be typical of their respective classes.
Purified porcine pancreatic PLA2 was obtained from Sigma (St. Louis, Miss.). PLA2 activity was measured by using [^14 C]-oleate labelled autoclaved E. coli as described by Franson, Patriarca and Elsbach (referenced above). The assay was performed at 37° C. for 5 min in a final volume of 100 μL Tris-HCl buffer (100
mM, pH 8.0) containing 1 mM EDTA, 10 mM CaCl2, and E. coli (containing 10 nmol phospholipid). The test compound or control vehicle was preincubated with PLA2 for 5 min, followed by adding E. coli to initiate the reaction. The reaction was terminated by adding 2 mL tetrahydrofuran. The reaction product, [^14 C]-oleic acid, was isolated using a 1 mL Bond Elute--NH2 column and counted by liquid scintillation spectrometry.
(§2) Two greater than symbols (>>) indicate little or no inhibition at the highest concentration used. Activation of an enzyme is indicated by a +X% which gave that activation of X%.

In the next assay the test system is HL-60 cells. In words: HL-60 cell assay for LTB4 and PGE2 production (calcium ionophore A23187 induced). The conditions noted are these: for pIC50: Homo sapiens, HL-60, A23187 5×10^-6 M, > : inhibition but not enough for an IC50. The class given is cell-based. As to the method: An additional whole cell assay was also performed. In this assay, HL-60 cells are induced with the calcium ionophore A23187 in the presence of varying amounts of inhibitor, and the amounts of the prostaglandin E2 (PGE2) and leukotriene B4 (LTB4) which form are measured. Calcium ionophore A23187 activates a calcium-dependent PLA2 which leads to the enhanced production of the arachidonic acid metabolites PGE2 and LTB4. The concentrations of inhibitor which decrease the production of PGE2 and LTB4 by 50% relative to controls are expressed as IC50 values.
HL-60 Cell Assay for LTB4 and PGE2 Production
HL-60 cells grown exponentially in culture were induced to differentiate into granulocytes by a four day incubation with 0.8% (v/v) N,N-dimethylformamide. Prior to assay, differentiated HL-60 cells were washed once with Hanks' balanced salt solution containing 0.35 mg/mL sodium bicarbonate and 10 mM Hepes, pH 7.3 (HBSS) and resuspended in HBSS at a 3×10^6 cells/mL concentration. DMSO or test compounds solubilized in DMSO were added at 1:100 dilution to 1.0 mL HL-60 cell suspensions (3×10^6 cells) and preincubated at 37° C. for 10 min in a shaking water bath. After an additional 5 min incubation with 5×10^-6 M calcium ionophore, A23187 (Calbiochem, La Jolla, Calif.), the cells were centrifuged at 12,800×g for 15 seconds and the supernatant (0.8 mL) removed and stored at -20° C. for LTB4 and PGE2 quantitation by radioimmunoassay (kits obtained from Amersham, United Kingdom and NEN Research Products, N. Billerica, Mass.).
as §2

Another assay deals with sheep platelet PLA2. In words: Calcium-dependent sheep platelet PLA2 assay. The class given is biochemical. To be noted: 1 μM CaCl2, pH 7.2; > : inhibition observed but not enough for an IC50 at highest concentration.
Source text: as §1
Homogeneous sheep platelet cytosolic PLA2 was prepared as described by Loeb, L. A., and Gross, R. W. J. Biol. Chem. 261, 10467-10470 (1986). The purified calcium-dependent platelet PLA2 was preincubated in 70 mM Tris-Cl (pH 7.2) containing 1 μM CaCl2 and test compound for 5 min at 25° C. Catalysis was initiated by injection 1 μM radiolabeled substrate (1-O-(Z)-(1'-hexadecenyl)-2-[9,10-^3 H]-oleoyl-3-phosphorylcholine). After a 10 min incubation period at 37° C., reaction products were extracted with n-butanol, separated by thin layer chromatography, and quantified by scintillation spectrometry. PLA2 activity was compared in the presence and absence of test compound and the IC50 was determined.
as §2

Assay [1] relates to calcium-independent canine myocardial PLA2. The assay can be described thus: Inhibition of purified calcium-independent canine myocardial PLA2 (radiolabeled fatty acid release). The format is biochemical. To be noted: for pIC50: purified enzyme, 6.4 mM EGTA, pH 7.0, 5 min preincubation 25° C., 5 min at 37° C., read-out: Canine Heart PLA2 IC50; for selectivity for calcium-independent canine myocardial PLA2 over the calcium-dependent PLA2 enzymes: versus calcium-dependent PLA2 enzymes. As for the experimental part:
This assay consists of determining the amount of radiolabeled fatty acid which is liberated from the radiolabeled phospholipid substrate by purified calcium-independent canine myocardial PLA2 in the presence of varying concentrations of the inhibitor. […] This concentration is defined as the IC50.
Appropriate controls were performed in the absence of test compound. Catalysis was initiated by injection of 1 μM radiolabeled substrate (1-O-(Z)-(1'-hexadecenyl)-2-[9,10-^3 H]-oleoyl-3-phosphorylcholine). After a 5 min incubation at 37° C., reaction products were extracted with n-butanol, separated by thin layer chromatography, and quantified by scintillation spectrometry.
as §2

Assay [2] deals with T2, human synovial fluid PLA2 (Homo sapiens, UniProt P14555).
T2 construct: Purified human synovial fluid PLA2; from tissue; host or cells: human synovial fluid; obtained from R. C; Franson (Medical College of Virginia)
T2 sequence (P14555 21-144): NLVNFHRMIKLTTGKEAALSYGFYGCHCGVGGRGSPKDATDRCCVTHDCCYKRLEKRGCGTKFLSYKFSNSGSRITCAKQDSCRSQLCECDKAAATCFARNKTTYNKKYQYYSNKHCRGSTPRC
In words: Human synovial fluid PLA2 assay ([14C]-oleate labelled E. coli). The format is biochemical. To be noted: 5 mM CaCl2, pH 7.0; > : inhibition but not enough for an IC50; >> : little or no inhibition at highest concentration; read-out: HSF PLA2 IC50.
Source text: as §1
Purified human synovial fluid PLA2 (purified by the procedure of Fawzy, A. A. and Franson, R. C. Biophys. J. 49, 533a [1986]) was obtained from R. C. Franson (Medical College of Virginia, Richmond, Va.). PLA2 activity was measured by using [^14 C]-oleate labelled autoclaved E. coli as substrate as described by Franson, R. C., Patriarca, P., and Elsbach, P. J. Lipid Res. 15, 380-388 (1974). The assay was performed at 37° C. for 30 min in a final volume of 100 μL 50 mM Hepes buffer (pH 7.0) containing 150 mM NaCl, 5 mM CaCl2, and E. coli cells (corresponding to 10 nmol phospholipid). The test compound or control vehicle was preincubated with PLA2 for 5 min, followed by adding E. coli to initiate the reaction. The reaction was terminated by adding 2 mL tetrahydrofuran. The reaction product, [^14 C]-oleic acid, was isolated using a 1 mL Bond Elute--NH2 column and counted by liquid scintillation spectrometry.
as §2

The subject of another assay is rat neonatal myocytes. To be noted: cited from earlier work.
[3] abbreviates: LTB4 production, read-out: HL-60 LTB4 IC50.
The mark [4] stands for this setting: PGE2 production, >> : little or no inhibition at highest concentration, read-out: HL-60 PGE2 IC50.

T1 sequence (P00592 23-146): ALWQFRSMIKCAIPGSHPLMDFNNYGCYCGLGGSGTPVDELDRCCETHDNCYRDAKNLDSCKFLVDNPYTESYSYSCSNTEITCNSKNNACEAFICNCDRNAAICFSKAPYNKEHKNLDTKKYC

As a reminder, the pIC50 is the negative decadic logarithm of the IC50, by convention in mol/L. In the case of `O=C1O/C(=C/I)CCC1c1cccc2ccccc12` (centres unmarked) [Example 1, Tetrahydro-(E)-6-(iodomethylene)-3-(1-naphthalenyl)-2H-pyran-2-one], the negative-log IC50 (pIC50) on porcine pancreatic PLA2 was below 4.00; with HL-60 cells (setting [3]), 4.93; with HL-60 cells (setting [4]), below 4.00; with sheep platelet PLA2 it was 4.00; in assay [1], 7.51; in assay [2], below 4.00. Moreover, the “HL-60 PGE2 activation (+X%)” value in the assay on HL-60 cells (PGE2 production) is “+300%”. Besides, in assay [1], the “potency against canine myocardial PLA2 (in words)” value (“potency” below) is “most potent compound known against calcium-independent canine myocardial PLA2”. The “selectivity for calcium-independent canine myocardial PLA2 over the calcium-dependent PLA2 enzymes” value in assay [1] is “over 3200 -fold”.
As to `C#C/C=C1\CCC(c2cccc3ccccc23)C(=O)O1` (centres unmarked) [Example 2, Tetrahydro-3-(1-Naphthalenyl)-(E)-6-(prop-2-ynylidene)-2H-pyran-2-one], the pIC50 on porcine pancreatic PLA2 is 4.77; in the assay with HL-60 cells (setting [3]), below 5.00; with HL-60 cells (setting [4]) it was below 5.00; with sheep platelet PLA2, 4.42; in assay [2], 4.28.
`O=C1O/C(=C/Br)CCC1c1cccc2ccccc12` (centres unmarked) [Example 3, (E)-6-(bromomethylene)tetrahydro-3-(1-naphthalenyl)-2H-pyran-2-one]: the pIC50 at porcine pancreatic PLA2 is below 4.00; in the assay with HL-60 cells (setting [3]) it was below 5.00; in the assay on HL-60 cells (setting [4]), below 5.00; in the assay with sheep platelet PLA2, 4.14; in assay [1], 6.85; in assay [2], below 4.00. In addition, the “HL-60 PGE2 activation (+X%)” value in the assay with HL-60 cells (PGE2 production) is on record as “+91%”. The “potency” value in assay [1] is “extremely potent inhibitors of canine myocardial PLA2”. Besides, in assay [1], the “selectivity for calcium-independent canine myocardial PLA2 over the calcium-dependent PLA2 enzymes” value is reported as “over 500 -fold”.
Take `O=C1O/C(=C\I)CCC1c1cccc2ccccc12` (centres unmarked) [Example 4, Tetrahydro-(Z)-6-(iodomethylene)-3-(1-naphthalenyl)-2H-pyran-2-one]: in assay [1], the “potency” value is given as “potency drops off by almost an order of magnitude” and the pIC50 is 6.72.
In the case of `O=C1O/C(=C/Br)CCC1c1ccccc1` (centres unmarked) [Example 5, (E)-6-(Bromomethylene)tetrahydro-3-phenyl-2H-pyran-2-one], the negative-log IC50 (pIC50) at porcine pancreatic PLA2 is below 4.00; in the assay with HL-60 cells (setting [3]), 5.96; in the assay on HL-60 cells (setting [4]) it was below 4.00; in the assay on sheep platelet PLA2, below 4.00; in assay [1], 6.60; in assay [2], below 4.00. Also, the “HL-60 PGE2 activation (+X%)” value with HL-60 cells (PGE2 production) is given as “+63%”. Besides, the “selectivity for calcium-independent canine myocardial PLA2 over the calcium-dependent PLA2 enzymes” value in assay [1] is listed as “over 400 -fold”.
`O=C1O/C(=C/Br)CC1c1cccc2ccccc12` (centres unmarked) [Example 6, (E)-5-(Bromomethylene)tetrahydro-3-(1-naphthalenyl)-2(3H)-furanone]: the pIC50 in assay [1] is 5.77.
`C=C1CCC(c2cccc3ccccc23)C(=O)O1` (centres unmarked) [Example 7, Tetrahydro-6-methylene-3-(1-naphthalenyl)-2H-pyran-2-one]: in assay [1], the “potency” value is recorded as “loss of more than two orders of magnitude in potency” and the negative-log IC50 (pIC50) is 4.66.
`O=C1O/C(=C/Br)CCC1Oc1ccccc1` (centres unmarked) [Example 8, (E)-6-(Bromomethylene)tetrahydro-3-phenoxy-2H-pyran-2-one]: in assay [1], the negative logarithm of the IC50 (pIC50) was 4.68.
On to `O=C1CCC/C(=C\Br)O1` [Example 9, (E)-6-(Bromomethylene)tetrahydro-2H-pyran-2-one], for which, in assay [1] (100 μM, printed in the IC50 column with footnote 4), the “Canine Heart PLA2 inhibition at 100 μM” value was 28%.
As for `O=C1O/C(=C/Br)CCC1c1cccnc1` (centres unmarked) [Example 10, (E)-6-(Bromomethylene)tetrahydro-3-(3-pyridyl)-2H-pyran-2-one Hydrochloride], the pIC50 in assay [1] was 4.12.
As for `COC1=CCC2=C(CCC3C2CC[C@@]2(C)C3CC[C@@H]2N(C)CCCN(C)C)C1` (some centres unmarked) [U26,384], in the assay on rat neonatal myocytes (induced by iodoacetate), the “release of arachidonic acid, phospholipid degradation, sarcolemmal membrane defects and release of creatine kinase” value was “prevented the release of arachidonic acid, phospholipid degradation, sarcolemmal membrane defects and the release of creatine kinase”.
In the case of `O=C(O)CI` [iodoacetate], the “ATP levels, release of arachidonic acid and morphological alterations of myocytes” value in the assay with rat neonatal myocytes (rat neonatal myocytes) is “lowers the levels of ATP which results in the release of arachidonic acid and morphological alterations of the myocytes”.
